How the values were obtained:
Type in all cases: cell-based, human
cytochrome c = assay: Cytochrome c release, Western immunoblot with densitometric scanning, ASMC; conditions: 24 h; ApoCI and ApoCIII 2.5 μg/mL, ApoCI-enriched HDL 1 μg apoA-I/mL
Method: FIGS. 5A-5C depict the effect of ApoCI, ApoCIII, ApoCI-enriched HDL, and GW4869 on cytochrome c release in ASMC. After treatment of confluent cells for 24 hours with ApoCI (2.5 μg/mL medium), ApoCIII (2.5 μg/mL medium), or ApoCI-enriched HDL (1 μg apoA-I/mL medium), the cells were lysed. The cell lysate was used as the source of cytochrome c, and the pellet was used as a source of caspase-3. The cell lysates were separated by SDS-polyacrylamide gel electrophoresis, blotted onto nitrocellulose, and cytochrome c detected using a polyclonal antibody against cytochrome c (FIG. 5A, top panel). The gels were then subjected to densitometric scanning (FIG. 5B, middle panel). In a separate experiment (FIG. 5C, right), confluent cells were grown on cover slips and pretreated with serum-free medium for 30 minutes. The cells were then incubated with control medium, ApoCI (2.5 μg/mL medium), TNF-α (20 ng/mL), or ApoCI (2.5 μg/mL)+GW4869 (20 μmol/L) for 24 hours. The cells were then washed, treated with a primary anti-cytochrome c antibody, washed with phosphate-buffered saline, and treated with a fluorescein isothiocyanate-conjugated anti-rabbit IgG (FIG. 5C, lower panel). […]

caspase-3 = assay: Caspase-3 level, Western immunoblot, ASMC; conditions: compared with control medium; ApoCI and ApoCIII 2.5 μg/ml, ApoCI-enriched HDL 1 μg apoA-I/ml, ApoCI-poor HDL 5 μg apoA-I/ml
Method: After incubation with ApoCI (2.5 μg/ml medium), ApoCIII (2.5 μg/ml medium), apoC-1-enriched HDL (1 μg apoA-I/ml medium), or ApoCI-poor HDL (5 μg ApoA-I/ml medium) for 24 h and 48 h, the cells were subjected to extraction with a buffer (30 mM HEPES, pH 7.5, 10 mM KCl, 1.5 mM MgCl2, 5 mM DTI, 2 mM phenylmethylsulfonyl fluoride (PMSF), 1% Nonidet P-40, 0.5% sodium deoxycholate, 0.1% SDS, 2 μg/ml leupeptin, 2 μg/ml aprotinin, 0.5 μg/ml benzamidine, and 250 mM sucrose) on ice for 30 min. Next, the samples were centrifuged at 10,000×g at 4° C. The supernatant was utilized as a source of cytochrome c in Western immunoblot assay. The pellets were lysed in RIPA buffer (phosphate buffer saline, 1% Nonidet P-40, 0.5% sodium deoxycholate, 0.1% SDS, and cocktail of inhibitors described above). The samples were passed through a 21-gauge needle to shear the DNA. Next, 10 μl of PMSF (10 mg/ml) was added and incubation continued for 60 min on ice. The samples were centrifuged at 10,000-×g for 10 min at 4° C. The supernatants were used as a source of protein in Western immunoblot assay for determination of caspase activation. Proteins (100 μg) were separated using 4-15% SDS-polyacrylamide gel under denaturing conditions and electro transferred onto nitrocellulose. […]

ceramide = assay: Measurement of the ceramide level (diacylglycerol kinase assay) in ASMC
Method: FIGS. 4A-4D depict the effect of ApoCI, ApoCI-enriched HDL, and ApoCI-poor HDL on the level of ceramide in ASMC. Confluent ASMC were incubated with ApoCI (2.5 μg/mL) with time (FIG. 4A, upper left) or with ApoCI-enriched HDL (1 μg apoA-I/mL medium) or ApoCI-poor HDL (5 μg apoA-I/mL medium) (FIG. 4B, upper right) for 30 minutes. FIG. 4C: The cells were incubated with ApoCI alone ([…]) for 5 minutes or preincubated with GW4869 (20 μmol/L) for 30 minutes. After addition of ApoCI (2.5 μg/mL), incubation was continued for 6 hours, 12 hours, and 24 hours. After incubation, cells were harvested and the levels of ceramide determined using the diacylglycerol kinase assay. The level of phosphate was measured and the data (mean±SD) were expressed as percentage of the total ceramide present in untreated cells (vehicle DMSO). *P<0.05. In a separate experiment (FIG. 4D, right), confluent cells were grown on cover slips and pretreated with serum-free medium for 30 minutes. The cells were then incubated with vehicle DMSO alone (control), ApoCI (2.5 μg/ML), or ApoCI (2.5 μg/mL) plus the N-SMase inhibitor GW4869 (20 μmol/L) for 24 hours. The cells were then washed, treated with a primary anticeramide antibody, washed with phosphate-buffered saline, and treated with a fluorescein isothiocyanate-conjugated anti-mouse IgG (FIG. 4C, lower panel).
Cells were pelleted and extracted with chloroform-methanol-acetic acid 100:100:2 (v/v/v). Lipids in organic phase were dried in N2 atmosphere and re-extracted, and the organic phase was dried. Detergent solution (30 μl of 7.5%/n-octyl-β-glucopyranoside with 5 mM cardiolipin in 1 mM diethylenimine-pentaacetic acid) was added, and the samples were sonicated. Total inorganic phosphate level was measured employing the method of Bartlett et al. Bartlett, G R. (1959). J. Biol. Chem. 234, 449-458). Ceramide was measured using the sn-1, 2-diacylglycerolkinase-assay reagent system and labeling for 30 min with 1 mCi of [^32P] ATP in 10 μl of 5 mM ATP (Signorelli, P., and Hannun, Y. A. (2002) Meth. Enzymol. 345, 275-294). Diacylglycerol kinase was from Streptomyces species (Calbiochem, San Diego, Calif.). [^32P] ATP (specific activity 3000 Ci/mmol) was from New England Nuclear Company (Boston, Mass.). Ceramide-1-phosphate and diacylglycerol-1-phosphate were resolved by thin-layer chromatography on silica gel plates (Whatman, Clinton, N.J.), using a solvent composed of chloroform-acetone-methanol-acetic acid-water 10:4:3:2:1(v/v) and detected by autoradiography using an Instant Imager (Packard Canberra Company). Ceramide was expressed as pmol ceramide/nmol phosphate.

maximum increase in ceramide level by ApoCI (ceramide; ApoCI 2.5 μg/mL, by 5 minutes)	effect of GW4869 on ApoCI-induced ceramide production, 24 hours (ceramide; GW4869 20 μmol/L, 24 hours)	effect of GW4869 on cellular level of ceramide induced by ApoCI, 5 minutes and 6 hours (ceramide; GW4869 20 μmol/L, after 5 minutes and 6 hours of incubation)	effect of GW4869 on ApoCI-induced ceramide production, 12 hours (ceramide; GW4869 20 μmol/L, after 12 hours of incubation)	Compound	stimulation of the release of cytochrome c (cytochrome c)	stimulation of caspase-3 level/expression (caspase-3)
				ApoCIII: purified human ApoCIII purchased from Academy Bio-Medical Company, used as negative control	2.3 fold	to a lesser extent than ApoCI-enriched HDL
1.7 fold				Apolipoprotein C-I (TPDVSSALDKLKEFGNTLEDKARELISRIKQSELSAKMREWFSETFQKVKEKLKIDS; UniProt P02654 27-83, looked up) [ApoCI, 6.6-kDa single-chain plasma protein of 57 amino acids; purified human ApoCI purchased from Academy Bio-Medical Company]	4.1 fold	4 fold
	reversed it to a high level	significantly decreased	completely inhibited	O=C(/C=C/c1ccc(/C=C/C(=O)Nc2ccc(C3=NCCN3)cc2)cc1)Nc1ccc(C2=NCCN2)cc1 [GW4869]		

Source: patent publication US8614064B2, “Methods of diagnosing atherosclerosis by measuring ApoCI” (The Johns Hopkins University, priority 2003, dated 2013)
